Experimental findings from US20230131899A1, “INHIBITORS OF MICROBIALLY INDUCED AMYLOID” (Axial Therapeutics, Inc., priority 2020, published 2023) are described below.

Where two headings read alike, the source gives them in different places.

In experiment [1] the test system is CsgA gene expression (csgBAC promoter-GFP reporter) in E. coli UTI89. Nature of the experiment: In vitro live cell fluorescent reporter assay of CsgA transcription (Reporter Assay). The experiment is classed as cell-based. As to the method:
In vitro live cell fluorescent reporter assay to determine effects of compounds on CsgA transcription. To assess the impact of compounds on CsgA gene expression, a live cell assay was performed using an engineered strain of E. coli UTI89 with a fluorescent CsgA gene expression reporter driven by the csgBAC promoter. In the reporter strain, a gene encoding Green Fluorescent Protein (GFP) was placed immediately downstream of the full intergenic region between csgDEF and csgBAC, containing the csgBAC promoter and other transcriptional regulatory elements, and inserted in single copy into the E. coli UTI89 chromosome, as described in Cegelski et. al., “Small-molecule inhibitors target Escherichia coli amyloid biogenesis and biofilm formation,” Nat. Chem. Bio., 25 Oct. 2009. With this construct, GFP expression in the reporter strain was under the same regulation as CsgA expression. The reporter strain was struck out on a YESCA agar plate (1 g/L yeast extract, 10 g/L casamino acids, 20 g/L Bacto Agar) and grown at about 27° C. for 2 days, or until single colonies were sufficiently large to pick. A single colony of the reporter strain was used to inoculate 5 mL of YESCA broth (1 g/L yeast extract, 10 g/L casamino acids), which was grown overnight at about 27° C. The inoculum was diluted 1:10 in YESCA broth and the optical density at 600 nm (OD600) was measured on a SpectraMax M2 or M5e (Molecular Devices, San Jose, Calif.) spectrophotometer in cuvettes. The culture was then further diluted to achieve a final OD600 of 0.003, which was confirmed by measurement of the OD600. Compounds were diluted in dimethyl sulfoxide (DMSO) and plated on black clear-bottomed tissue culture-treated 96-well plates with 1.5 μL/well for final test concentrations from 0.14-100 μM. All assay wells, including vehicle controls and positive controls for inhibition, included 1% DMSO final. Vehicle control wells consisted of DMSO and the reporter strain to assess the expression of the reporter strain in the assay in the absence of any compound. […] 148.5 μL culture at OD600 0.003 in YESCA broth was added to all wells for 150 μL final volume. Plates were incubated at 27° C. for 20 hours, then GFP fluorescence signal for each well was read on a Spectramax M2 or M5e plate reader with excitation at 485 nm, emission at 525 nm, and a cutoff at 515 nm. OD600 for each well was also measured on the Spectramax M2 or M5e plate reader. […] Background fluorescence was subtracted from all wells, then fluorescence signal for each well was normalized to the mean of the vehicle control wells. Normalized dose response curves were plotted for each compound, and compound inhibition of CsgA transcription was determined by assessing the curve-fit IC50, bottom, top, span (top-bottom), and Hill slope using GraphPad Prism software version 8.1.1 (GraphPad Software, San Diego, Calif.). An additional metric used to evaluate compounds was the concentration at which the curve reached 50% of the expression level of the vehicle control. This was written as a custom analysis in GraphPad Prism according to the formula X[50], or the X value at which Y=50, ie, the compound concentration at which fluorescence of the reporter strain was calculated to reach 50% of the vehicle control fluorescence. Separately from the fluorescence data, OD600 values were normalized to the mean of the vehicle control wells, and dose response curves were plotted for each compound. OD600 reduction of greater than 10% indicated compounds had some toxicity or negative impact on bacterial growth. […]

Another experiment deals with T1, E. coli CsgA (Escherichia coli, UniProt P28307).
T1 construct: made in house; host or cells: E. coli NEB 3016 slyD::kan, pET11d
T1 sequence (P28307 23-151): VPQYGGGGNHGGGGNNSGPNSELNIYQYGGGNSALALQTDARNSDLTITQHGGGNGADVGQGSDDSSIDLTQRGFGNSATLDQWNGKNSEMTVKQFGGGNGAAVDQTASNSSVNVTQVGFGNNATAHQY
Nature of the experiment: In vitro ThioflavinT assay of CsgA aggregation (CsgA ThT Assay). It counts as biochemical. As to the method: In vitro ThioflavinT assay to determine effects of compounds on CsgA aggregation. To assess the effects of compounds on aggregation of E. coli CsgA, a cell-free assay was performed using purified CsgA and Thioflavin T. In the assay, histidine-tagged CsgA was over-expressed in E. coli NEB 3016 slyD::kan cells harboring a pET11d vector containing a C-terminal 6× His tag. Following growth in rich media, CsgA production is induced at an OD600 of approximately 1.0 by addition of 0.5 mM IPTG (isopropyl beta-D-1-thiogalactopyranoside) followed by incubation at 37° C. for 1-4 hours with shaking at 200-250 rpm. Bacteria were resuspended in 8 M guanidine hydrochloride in 50 mM potassium phosphate buffer, pH 7.3 and lysed by sonication on ice using three 20 second intervals. The resulting lysate was incubated on a platform rocker for 1 hour at room temperature. After centrifugation at 10,000×g for 20 minutes, the supernatant was further sonicated on ice for three 20 second intervals and then incubated with nickel-nitrilotriacetic acid resin (Sigma) at room temperature for 1 hour in a 50 mL conical tube on a platform rocker. The resin was washed and pelleted 5 times with 45 mL 8 M guanidine in 50 mM potassium phosphate buffer pH 7.3. The resin was further washed and pelleted two times with 8 M guanidine hydrochloride in 50 mM potassium phosphate buffer pH 7.3 containing 12.5 mM imidazole. Purified CsgA protein was eluted two times with 5 mL of 6-8 M guanidine hydrochloride in 50 mM potassium phosphate buffer, pH 7.3 containing 250 mM imidazole. The eluted protein was aliquoted with 150 μL per aliquot, snap frozen in liquid nitrogen, and stored at −80 C. In order to obtain monomeric CsgA, the purified CsgA protein was thawed and passed through two pre-chilled desalting columns (Zeba) to remove imidazole and guanidine. The buffer exchanged protein was loaded onto a 30-kDa centrifugal filter unit (Amicon) and spun for 30 minutes at 7500×g to remove dimers and other oligomers. Protein concentration was assessed by the NanoDrop technique (Thermo Scientific), as is familiar to one skilled in the art. The CsgA aggregation assay was conducted in 96-well black non-binding surface or white untreated microplates with 20-40 μM ThioflavinT, 50 mM potassium phosphate buffer pH 7.3, 1% DMSO, CsgA at 2-20 μM, and compounds at 3.125-200 uM. The vehicle control wells contain all components of the assay except test compounds and represent the level of CsgA aggregation in the absence of any inhibitor or accelerator. Plates were incubated at room temperature in a Tecan Nano F200 plate reader with excitation at 438 nm using a 439 nm filter with a bandwidth of 8 nm, and emission at 495 nm with a 490 nm filter with a bandwidth of 10 nm, or in a SpectraMax M5, SpectraMax M2 or SpectraMax® i3X (Molecular Devices, San Jose, Calif.) spectrophotometer with excitation at 438 nm and emission at 495 nm. During the assay, plates were shaken initially for 5 seconds and subsequently for 3 seconds prior to fluorescent readings. Readings were performed every 15 minutes for up to 1005 minutes. The effect of compounds on CsgA aggregation in the assay was determined with data from 0-17 hours. Fluorescence values for each compound with CsgA were first adjusted by subtracting the average fluorescence of the compound in the absence of CsgA or in the presence of CsgA and compound at time 0 or 15 minutes. The data were analyzed in several ways:
1. The adjusted ThT fluorescence values were normalized by dividing them by the average fluorescence in the vehicle control wells containing CsgA. The median normalized fluorescence from 6-6.5 hours or 8-9 hours with the compound was expressed as a percentage of the median fluorescence observed in vehicle controls over the same time period. Percent inhibition of CsgA aggregation by a compound was determined by subtracting the percent average fluorescence with the compound relative to the vehicle controls from 100%. […]

The mark [2] stands for this setting: Escherichia coli, read-out: Reporter Assay Abs IC50 (μM), median Abs IC50 in the CsgA reporter assay, N/A = maximum expression reduction is <50% of control.
Where [3] appears, read: Escherichia coli, read-out: Reporter Assay Abs IC50, activity range, class symbol.
Setting [4] is: Escherichia coli, read-out: Reporter Assay Abs IC50 (activity range), median Abs IC50 in the CsgA reporter assay, class symbol.
The mark [5] stands for this setting: read-out: CsgA ThT Assay (10 μM CsgA) % Control AUC at 1005 minutes, 25 μM (activity range), CsgA 10 μM, black plates, compound 25 μM, 1005 minutes, class symbol.
[6] abbreviates: read-out: CsgA ThT Assay (10 μM CsgA) % Control AUC at 1005 minutes, 25 μM, mean AUC as % of DMSO control, CsgA 10 μM, black plates, compound 25 μM, 1005 minutes.
The mark [7] stands for this setting: read-out: CsgA ThT Assay (10 μM CsgA) % Control AUC at 1005 minutes, 100 μM (activity range), CsgA 10 μM, black plates, compound 100 μM, 1005 minutes, class symbol.
[8] abbreviates: read-out: CsgA ThT Assay (10 μM CsgA) % Control AUC at 1005 minutes, 100 μM, mean AUC as % of DMSO control, CsgA 10 μM, black plates, compound 100 μM, 1005 minutes.

On to `O=C(O)C1CN(Cc2ccccc2)c2c(-c3cccc(C(F)(F)F)c3)c(Cc3cccc4ccncc34)c(Cl)c(=O)n21` (centres unmarked) [Compound 205, 1-benzyl-6-chloro-7-(isoquinolin-8-ylmethyl)-5-oxo-8-(3-(trifluoromethyl)phenyl)-1,2,3,5-tetrahydroimidazo[1,2-a]pyridine-3-carboxylic acid], for which the IC50 is 22.4 µM in experiment [1] (setting [2]) and above 10 µM in experiment [1] (setting [3]). The remaining activity at 25 µM at E. coli CsgA (read-out: CsgA ThT Assay (2 μM CsgA) % Control Bmax 25 μM, activity range, class symbol, CsgA 2 μM, white plates, compound 25 μM) was above 60%; at E. coli CsgA (read-out: CsgA ThT Assay (2 μM CsgA) % Control Bmax 25 μM, mean Bmax as percentage of DMSO control, CsgA 2 μM, white plates, compound 25 μM), 69%. Also, the remaining activity at 100 µM on E. coli CsgA (read-out: CsgA ThT Assay (2 μM CsgA) % Control Bmax 100 μM, activity range, class symbol, CsgA 2 μM, white plates, compound 100 μM) is 31 to 60%; on E. coli CsgA (read-out: CsgA ThT Assay (2 μM CsgA) % Control Bmax 100 μM, mean Bmax as percentage of DMSO control, CsgA 2 μM, white plates, compound 100 μM), 44%.

In the case of `Nc1c(Cc2cccc3ccccc23)c(-c2cccc(C(F)(F)F)c2)c2n(c1=O)C(C(=O)O)CN(C[C@H](O)[C@@H](O)[C@H](O)[C@H](O)CO)S2(=O)=O` (stereo partly drawn) [Compound 105, 7-amino-8-(naphthalen-1-ylmethyl)-6-oxo-2-((2S,3R,4R,5R)-2,3,4,5,6-pentahydroxyhexyl)-9-(3-(trifluoromethyl)phenyl)-3,4-dihydro-2H,6H-pyrido[1,2-e][1,2,5]thiadiazine-4-carboxylic acid 1,1-dioxide], the half-inhibitory concentration (IC50) in experiment [1] (setting [4]) is above 10 µM; in experiment [1] (setting [2]), 36 µM. Further, the remaining activity at 25 µM is above 60% on E. coli CsgA (setting [5]) and 102% at E. coli CsgA (setting [6]). In addition, the remaining activity at 100 µM was above 60% at E. coli CsgA (setting [7]) and 70% at E. coli CsgA (setting [8]).

For `CCN1CC(C(=O)O)n2c(c(-c3cccc(C(F)(F)F)c3)c(Cc3cccc4ccccc34)cc2=O)S1(=O)=O` (single isomer, unassigned) [Compound 015b, 2-ethyl-8-(naphthalen-1-ylmethyl)-6-oxo-9-(3-(trifluoromethyl)phenyl)-3,4-dihydro-2H,6H-pyrido[1,2-e][1,2,5]thiadiazine-4-carboxylic acid 1,1-dioxide], the IC50 was above 10 µM in experiment [1] (read-out: Reporter Assay Abs IC50 (activity range), median Abs IC50 in the CsgA reporter assay, class symbol) and 22.5 µM in experiment [1] (read-out: Reporter Assay Abs IC50, median Abs IC50 in the CsgA reporter assay, N/A = maximum expression reduction is <50% of control). Besides, the “CsgA ThT Assay (10 μM CsgA) % Control AUC at 1005 minutes, 25 μM (activity range)” value at E. coli CsgA (CsgA 10 μM, black plates, compound 25 μM, 1005 minutes, class symbol) was “(+++) (% control AUC of 11 to 31%)”. Moreover, at E. coli CsgA (CsgA 10 μM, black plates, compound 100 μM, 1005 minutes, class symbol), the “CsgA ThT Assay (10 μM CsgA) % Control AUC at 1005 minutes, 100 μM (activity range)” value is “(+++) (% control AUC of 11 to 31%)”. The “CsgA ThT Assay (10 μM CsgA) % Control AUC at 1005 minutes, 25 μM” value on E. coli CsgA (mean AUC as % of DMSO control, CsgA 10 μM, black plates, compound 25 μM, 1005 minutes) was found to be 29%. Moreover, on E. coli CsgA (mean AUC as % of DMSO control, CsgA 10 μM, black plates, compound 100 μM, 1005 minutes), the “CsgA ThT Assay (10 μM CsgA) % Control AUC at 1005 minutes, 100 μM” value was 23%.

Regarding `O=C(O)C1CN(C(CO)CO)S(=O)(=O)c2c(-c3cccc(C(F)(F)F)c3)c(Cc3cccc4ccccc34)cc(=O)n21` (centres unmarked) [Compound 106, 2-(1,3-dihydroxypropan-2-yl)-8-(naphthalen-1-ylmethyl)-6-oxo-9-(3-(trifluoromethyl)phenyl)-3,4-dihydro-2H,6H-pyrido[1,2-e][1,2,5]thiadiazine-4-carboxylic acid 1,1-dioxide], the half-inhibitory concentration (IC50) in experiment [1] (setting [4]) is above 10 µM; in experiment [1] (setting [2]) it was 28.3 µM. Also, the values for the remaining activity at 25 µM at E. coli CsgA (setting [5]) and on E. coli CsgA (setting [6]) were above 60% and 95%, respectively. Moreover, the remaining activity at 100 µM at E. coli CsgA (setting [7]) was 31 to 60%; at E. coli CsgA (setting [8]), 38%.

For the compound `O=C(O)C1CN(Cc2ccccc2)c2c(-c3cccc(C(F)(F)F)c3)c(CN3CCCc4ccccc43)cc(=O)n21` (centres unmarked) [Compound 228, 1-benzyl-7-((3,4-dihydroquinolin-1 (2H)-yl)methyl)-5-oxo-8-(3-(trifluoromethyl)phenyl)-1,2,3,5-tetrahydroimidazo[1,2-a]pyridine-3-carboxylic acid], the 50% inhibitory concentration (IC50) in experiment [1] (setting [2]) was 3.9 µM; in experiment [1] (setting [3]), 1.3 to 4.5 µM.
